Source: patent US12091425B2 (AMGEN INC., priority 2016, dated 2024)

Legend:
[1] = biological target: T1, Mcl-1/Bim interaction, recombinant human Mcl-1 (171-327) (Homo sapiens, UniProt Q07820); test: Cell free Mcl-1: Bim Affinity Assay (Mcl-1 HTRF); assay type: binding
T1 construct: made in house
Procedure, shortened: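 TR-FRET competition assay with biotinylated human Bim peptide (residues 51-76); reaction plates incubated overnight before reading. IC50 values came from duplicate data fitted to a four-parameter sigmoidal competition curve.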

[2] = system: OPM-2 human multiple myeloma cell line; test: Cell Viability Assay (OPM-2 10 FBS); assay type: cell-based; settings: OPM-2 cells, CellTiter-Glo
Procedure, shortened: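 Plated at 3000 cells/well in 10% FBS complete medium, the cells received a serial compound dilution series and incubated 16 h at 37 °C with 5% CO2. CellTiter-Glo was then added; IC50 values were fitted with a logistic 4-parameter model.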

[3] = cell free Mcl-1:Bim TR-FRET, recombinant human Mcl-1 (171-327)
[4] = Homo sapiens, OPM-2, 16 h, 16 h
[5] = TR-FRET, 0.1 nM Mcl-1 (171-327), 0.05 nM biotin-Bim (51-76)
[6] = Homo sapiens, OPM-2, 16 h, 16 h incubation

T1 sequence (Q07820 171-327): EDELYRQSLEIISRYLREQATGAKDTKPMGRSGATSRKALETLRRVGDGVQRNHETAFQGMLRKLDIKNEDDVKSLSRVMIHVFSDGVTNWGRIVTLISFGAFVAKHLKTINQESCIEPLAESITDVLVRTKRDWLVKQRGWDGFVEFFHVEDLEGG

Row | Structure (SMILES) | IC50 [1, 3] [nM] | IC50 [2, 4] [nM] | IC50 [1, 5] [nM] | other results
1 | COCCO[C@H]1/C=C/C[C@H](C)N(Cc2ccc(OC)cc2)S(=O)(=O)NC(=O)c2ccc3c(c2)N(C[C@@H]2CC[C@H]21)C[C@@]1(CCCc2cc(Cl)ccc21)CO3 [Example 82, (1S,3′R,6′R,7′S,8′E,11′S)-6-chloro-12′-(4-methoxybenzyl)-7′-(2-methoxyethoxy)-11′-methyl-3,4-dihydro-2H,15′H-spiro[naphthalene-1,22′-[20]oxa[13]thia[1,12,14]triazatetracyclo[14.7.2.0^3,6.0^19,24]pentacosa[8,16,18,24]tetraen]-15′-one 13′,13′-dioxide] |  | 2920 | 7.8 | 
2 | O=C1NS(=O)(=O)N2CCOC[C@H]2C/C=C\[C@H](O)[C@@H]2CC[C@H]2CN2C[C@@]3(CCCc4cc(Cl)ccc43)COc3ccc1cc32 (single isomer, unassigned) [Example 344] |  | 912 | 2.11 | 
3 | C[C@H]1C/C=C\[C@H](O)[C@@H]2CC[C@H]2CN2C[C@@]3(CCCc4cc(Cl)ccc43)COc3ccc(cc32)C(=O)NS(=O)(=O)N1C[C@H]1CCCO1 (single isomer, unassigned) [Example 54] |  | 774 | 0.781 | 
4 | COCCO[C@H]1/C=C/C[C@H](C)[C@@H](CC(F)(F)F)S(=O)(=O)NC(=O)c2ccc3c(c2)N(C[C@@H]2CC[C@H]21)C[C@@]1(CCCc2cc(Cl)ccc21)CO3 (single isomer, unassigned) [Example 669] | 1.37 |  |  | IC50 ([2]; 16 h): 272 nM
5 | COC[C@@H](O)C[C@@H]1[C@@H](C)C/C=C/[C@H](O)[C@@H]2CC[C@H]2CN2C[C@@]3(CCCc4cc(Cl)ccc43)COc3ccc(cc32)C(=O)NS1(=O)=O (single isomer, unassigned) [Example 672] | 0.193 |  |  | IC50 ([2]; 16 h): 286 nM
6 | CC[C@@H]1CC/C=C/[C@H](OCc2ncccn2)[C@@H]2CC[C@H]2CN2C[C@@]3(CCCc4cc(Cl)ccc43)COc3ccc(cc32)C(=O)NS1(=O)=O [Example 977, (1S,3′R,6′R,7′S,8′E,12′R)-6-chloro-12′-ethyl-7′-(2-pyrimidinylmethoxy)-3,4-dihydro-2H,15′H-spiro[naphthalene-1,22′-[20]oxa[13]thia[1,14]diazatetracyclo[14.7.2.0^3,6.0^19,24]pentacosa [8,16,18,24]tetraen]-15′-one 13′,13′-dioxide] |  |  | 0.329 | IC50 [2, 6]: 266 nM
7 | COC(=O)CC1CCC=CC(O)C2CCC2CN2CC3(CCCc4cc(Cl)ccc43)COc3ccc(cc32)C(=O)NS1(=O)=O (single isomer, unassigned) [Example 619] | 0.187 |  |  | IC50 ([2]; 16 h): 401 nM
8 | COC(=O)CC[C@]1(C)CC/C=C/[C@H](O)[C@@H]2CC[C@H]2CN2C[C@@]3(CCCc4cc(Cl)ccc43)COc3ccc(cc32)C(=O)NS1(=O)=O (single isomer, unassigned) [Example 561] | 3.58 |  |  | IC50 ([2]; 16 h): 8470 nM
9 | COCCO[C@H]1/C=C/C[C@@H]2C[C@H]2S(=O)(=O)NC(=O)c2ccc3c(c2)N(C[C@@H]2CC[C@H]21)C[C@@]1(CCCc2cc(Cl)ccc21)CO3 (single isomer, unassigned) [Example 786] | 1.03 |  |  | IC50 ([2]; 16 h): 1480 nM

Further lines, with some results ahead:

Row | IC50 [1, 3] [nM] | IC50 [2, 4] [nM] | IC50 [1, 5] [nM] | Structure (SMILES) | other results
10 | 15.1 | 3390 |  | C[C@@H]1[C@@H](C)C/C=C/[C@H](OCCC2CCN(C(=O)OC(C)(C)C)CC2)[C@@H]2CC[C@H]2CN2C[C@@]3(CCCc4cc(Cl)ccc43)COc3ccc(cc32)C(=O)NS1(=O)=O [Example 737, tert-butyl 4-(2-(((1S,3′R,6′R,7′S,8′E,11′S,12′R)-6-chloro-11′,12′-dimethyl-13′,13′-dioxido-15′-oxo-3,4-dihydro-2H-spiro[naphthalene-1,22′-[20]oxa[13]thia[1,14]diazatetracyclo[14.7.2.0˜3,6˜.0˜19,24˜]pentacosa[8,16,18,24]tetraen]-7′-yl)oxy)ethyl)-1-piperidinecarboxylate] | 
11 | 0.389 | 162 |  | CO[C@H](C)C[C@@H]1[C@@H](C)C/C=C/[C@H](OC)[C@@H]2CC[C@H]2CN2C[C@@]3(CCCc4cc(Cl)ccc43)COc3ccc(cc32)C(=O)NS1(=O)=O (single isomer, unassigned) [Example 535] | 
12 | 0.207 | 148 |  | COC[C@H](O)CN1[C@@H](C)C/C=C/[C@H](O)[C@@H]2CC[C@H]2CN2C[C@@]3(CCCc4cc(Cl)ccc43)COc3ccc(cc32)C(=O)NS1(=O)=O [Example 687, (1S,3′R,6′R,7′S,8′E,11′S)-6-chloro-7′-hydroxy-12′-((2R)-2-hydroxy-3-methoxypropyl)-11′-methyl-3,4-dihydro-2H,15′H-spiro[naphthalene-1,22′-[20]oxa[13]thia[1,12,14]triazatetracyclo[14.7.2.0^3,6.0^19,24]pentacosa[8,16,18,24]tetraen]-15′-one 13′,13′-dioxide] | 
13 | 0.598 |  |  | CC(C)(O)C[C@@H]1CC/C=C/[C@H](O)[C@@H]2CC[C@H]2CN2C[C@@]3(CCCc4cc(Cl)ccc43)COc3ccc(cc32)C(=O)NS1(=O)=O (single isomer, unassigned) [Example 559] | IC50 ([2]; 16 h): 4420 nM
14 |  |  | 0.195 | O=C1NS(=O)(=O)[C@@H]2COC[C@H]2C/C=C/[C@H](O)[C@@H]2CC[C@H]2CN2C[C@@]3(CCCc4cc(Cl)ccc43)COc3ccc1cc32 (single isomer, unassigned) [Example 1030] | IC50 ([2]; 16 h incubation): 271 nM
15 |  | 421 | 0.774 | C[C@@H]1[C@@H](C)C/C=C/[C@H](OCC(=O)N2CCC(F)(F)CC2)[C@@H]2CC[C@H]2CN2C[C@@]3(CCCc4cc(Cl)ccc43)COc3ccc(cc32)C(=O)NS1(=O)=O [Example 315, (1S,3′R,6′R,7′S,8′E,11′S,12′R)-6-chloro-7′-(2-(4,4-difluoro-1-piperidinyl)-2-oxoethoxy)-11′,12′-dimethyl-3,4-dihydro-2H,15′H-spiro[naphthalene-1,22′-[20]oxa[13]thia[1,14]diazatetracyclo[14.7.2.0^3,6.0^19,24]pentacosa [8,16,18,24]tetraen]-15′-one 13′,13′-dioxide] | 
16 |  | 810 | 0.728 | COCCN1[C@@H](C)C/C=C\[C@H](O)[C@@H]2CC[C@H]2CN2C[C@@]3(CCCc4cc(Cl)ccc43)COc3ccc(cc32)C(=O)NS1(=O)=O (single isomer, unassigned) [Example 63] | 
17 | 0.275 | 8490 |  | NC(=O)OC[C@@H]1CC/C=C/[C@H](O)[C@@H]2CC[C@H]2CN2C[C@@]3(CCCc4cc(Cl)ccc43)COc3ccc(cc32)C(=O)NS1(=O)=O (single isomer, unassigned) [Example 611] | 
18 | 12.2 | 2140 |  | Cc1ccc(S(=O)(=O)NCCO[C@H]2/C=C/C[C@H](C)[C@@H](C)S(=O)(=O)NC(=O)c3ccc4c(c3)N(C[C@@H]3CC[C@H]32)C[C@@]2(CCCc3cc(Cl)ccc32)CO4)cc1 [Example 726, N-(2-(((1S,3′R,6′R,7′S,8′E,11′S,12′R)-6-chloro-11′,12′-dimethyl-13′, 13′-dioxido-15′-oxo-3,4-dihydro-2H-spiro[naphthalene-1,22′-[20]oxa[13]thia[1,14]diazatetracyclo[14.7.2.0^3,6.0^19,24]pentacosa[8,16,18,24]tetraene]-7′-yl)oxy)ethyl)4-methylbenzenesulfonamide] | 
19 |  | 567 | 0.2 | C[C@@H]1[C@@H](C)C/C=C/[C@H](OCC(=O)NC2COC2)[C@@H]2CC[C@H]2CN2C[C@@]3(CCCc4cc(Cl)ccc43)COc3ccc(cc32)C(=O)NS1(=O)=O [Example 303, 2-(((1S,3′R,6′R,7′S,8′E,11′S,12′R)-6-chloro-11′,12′-dimethyl-13′,13′-dioxido-15′-oxo-3,4-dihydro-2H-spiro[naphthalene-1,22′-[20]oxa[13]thia[1,14]diazatetracyclo[14.7.2.0^3,6.0^19,24]pentacosa [8,16,18,24]tetraen]-7′-yl)oxy)-N-3-oxetanylacetamide] | 
20 |  |  | 0.336 | CC[C@@H]1CC/C=C/[C@H](OCC(=O)N2CCC2)[C@@H]2CC[C@H]2CN2C[C@@]3(CCCc4cc(Cl)ccc43)COc3ccc(cc32)C(=O)NS1(=O)=O [Example 997, (1S,3′R,6′R,7′S,8′E,12′R)-7′-(2-(1-azetidinyl)-2-oxoethoxy)-6-chloro-12′-ethyl-3,4-dihydro-2H,15′H-spiro[naphthalene-1,22′-[20]oxa[13]thia[1,14]diazatetracyclo[14.7.2.0^3,6.0^19,24]pentacosa [8,16,18,24]tetraen]-15′-one 13′,13′-dioxide] | IC50 [2, 6]: 962 nM
21 |  | 844 | 0.245 | CONC(=O)CO[C@H]1/C=C/C[C@H](C)[C@@H](C)S(=O)(=O)NC(=O)c2ccc3c(c2)N(C[C@@H]2CC[C@H]21)C[C@@]1(CCCc2cc(Cl)ccc21)CO3 [Example 301, 2-(((1S,3′R,6′R,7′S,8′E,11′S,12′R)-6-chloro-11′,12′-dimethyl-13′,13′-dioxido-15′-oxo-3,4-dihydro-2H-spiro[naphthalene-1,22′-[20]oxa[13]thia[1,14]diazatetracyclo[14.7.2.0^3,6.0^19,24]pentacosa [8,16,18,24]tetraen]-7′-yl)oxy)-N-methoxyacetamide] | 
22 |  | 23100 | 45.2 | CC1CC=CC(O)C2CCC2CN2CC3(CCCc4cc(Cl)ccc43)COc3ccc(cc32)C(=O)NS(=O)(=O)C1 (single isomer, unassigned) [Example 231] | 
23 |  |  | 0.711 | CC1C=CC(O)C2CCC2CN2CC3(CCCc4cc(Cl)ccc43)COc3ccc(cc32)C(=O)NS(=O)(=O)CC1C (single isomer, unassigned) [Example 1061] | IC50 [2, 6]: 1110 nM
